In brackets after ≈: the same amount, converted by molar mass. Read-outs that look alike come from different tables or passages of the source. Residues, ends and D or L forms follow the SMILES beside them.
Assays:
[1] = system: Aspergillus flavus ATCC MYA-1005; test: microbe, parasite or virus in culture; type: cell-based; settings: read-out: MIC for growth inhibition, A. flavus
Experimental: (§1) The following fungal isolates were used: Saccharomyces cerevisiae ATCC 9763, Candida albicans SC5314, Candida parapsilosis ATCC 22019, Candida tropicalis Ct016, Candida glabrata ATCC 90030, Aspergillus fumigatus ATCC 13073, and Aspergillus flavus ATCC MYA-1005. Frozen stocks of yeast isolates in glycerol (final concentration, 20%) were prepared by growing the cells to log phase in YPD medium at 30°C and 150 rpm. Frozen stocks of mold spores were prepared by harvesting spores from 7-day-old potato glucose agar plates in phosphate-buffered saline, 0.1% Tween 80 and aliquoting these spores in the presence of glycerol (final concentration, 20%). The cells were stored at −80°C. The cells or spores were thawed and diluted to a final concentration of 0.5 × 10^5 to 2.5 × 10^5 CFU/ml in sterile Milli-Q H2O. […] The plate was incubated for 20 to 24 h at 34°C (72 h for molds), and the OD490 was measured on a Victor X5 (PerkinElmer) plate reader. Mold growth assay plates were also visually inspected. The MIC was defined as the lowest concentration inhibiting the visual growth of the microorganism. Standard errors were typically below 5%.

[2] = system: Saccharomyces cerevisiae ATCC 9763; test: microbe, parasite or virus in culture; type: cell-based; settings: read-out: MIC for growth inhibition, S. cerevisiae
Experimental: as §1

Hep-G2 cells = test: cells; type: cell-based, human
Experimental: In a tissue culture-treated 96-well plate (catalog number 655180; Grenier), 10,000 human hepatocyte Hep-G2 cells (catalog number 85011430; Sigma-Aldrich) were plated in 200 μl growth medium (Eagle minimal essential medium; catalog number M2279; Sigma-Aldrich), 2 mM L-glutamine (catalog number 03-020-1B; Biological Industries), 1% nonessential amino acids (catalog number XC-E1154/100; Biosera), 10% fetal bovine serum (catalog number BI-04-007-1A; Biological Industries) and incubated overnight at 37°C in 5% CO2. On the next day, fresh growth medium plus 2 μl compound in DMSO was added. The plate was incubated for a further 24 h at 37°C in 5% CO2. The medium was replaced with 100 μl freshly prepared 0.5 mg/ml 2,3-bis(2-methoxy-4-nitro-5-sulfophenyl)-5-[(phenylamino)carbonyl]-2H-tetrazolium hydroxide, sodium salt, solution (catalog number X4251; Sigma-Aldrich) in RPMI 1640 medium (catalog number R7509; Sigma-Aldrich) with 3.83 μg/ml phenazine methosulfate (catalog number P9625; Sigma-Aldrich) and incubated for 2 to 3 h at 37°C in 5% CO2. The color reaction was measured on a Victor X5 plate reader (PerkinElmer) by determination of the OD450 and the half-maximal (50%) effective concentration (EC50) was calculated.

[3] = Compound precipitation in the fungal growth medium; type: physicochemical; settings: fungal growth medium (RPMI), footnotes of Table 1
Experimental: as §1

Candida spp. = test: Fungal growth inhibition, Candida spp. (text summary of Table 1); type: cell-based; settings: 38 μM highest concentration tested for compounds 4 and 8, read-out: MIC for several of the Candida spp. tested
Experimental: as §1

Ca^2+-ATPase (SERCA1a) = Ca^2+-ATPase (SERCA1a) (Oryctolagus cuniculus, UniProt P04191); test: ATP hydrolysis assay, SERCA; type: biochemical, rabbit; settings: Table 1
Ca^2+-ATPase (SERCA1a), sequence (P04191 1-994 isoform P04191-2): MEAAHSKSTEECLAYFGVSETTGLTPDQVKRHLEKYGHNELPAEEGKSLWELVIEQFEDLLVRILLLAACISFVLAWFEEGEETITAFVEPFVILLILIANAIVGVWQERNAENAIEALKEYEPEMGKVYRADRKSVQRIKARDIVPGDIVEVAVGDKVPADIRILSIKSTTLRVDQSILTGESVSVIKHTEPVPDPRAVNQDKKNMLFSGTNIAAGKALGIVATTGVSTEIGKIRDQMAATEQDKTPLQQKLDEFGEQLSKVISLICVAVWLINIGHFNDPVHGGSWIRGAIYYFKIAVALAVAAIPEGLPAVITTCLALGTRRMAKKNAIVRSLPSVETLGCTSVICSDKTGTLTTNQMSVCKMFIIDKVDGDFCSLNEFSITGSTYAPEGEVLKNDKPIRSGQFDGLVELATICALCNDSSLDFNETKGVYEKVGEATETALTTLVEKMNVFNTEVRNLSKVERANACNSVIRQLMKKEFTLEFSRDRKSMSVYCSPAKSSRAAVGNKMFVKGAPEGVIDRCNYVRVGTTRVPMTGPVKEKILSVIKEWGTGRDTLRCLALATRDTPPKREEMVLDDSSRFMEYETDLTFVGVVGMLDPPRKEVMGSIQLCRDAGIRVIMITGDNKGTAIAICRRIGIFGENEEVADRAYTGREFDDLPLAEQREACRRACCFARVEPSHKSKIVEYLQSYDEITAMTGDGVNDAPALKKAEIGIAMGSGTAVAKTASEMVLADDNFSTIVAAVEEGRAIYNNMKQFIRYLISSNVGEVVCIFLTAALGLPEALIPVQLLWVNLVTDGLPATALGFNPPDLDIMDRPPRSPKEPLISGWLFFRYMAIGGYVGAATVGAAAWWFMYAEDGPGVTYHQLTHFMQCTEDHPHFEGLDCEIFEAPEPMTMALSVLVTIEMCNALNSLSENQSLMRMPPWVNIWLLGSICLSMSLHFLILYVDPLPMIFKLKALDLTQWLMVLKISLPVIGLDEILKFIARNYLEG

C. albicans cells = test: Intracellular ATP (iATP), C. albicans; type: cell-based, Candida albicans; settings: for EC50: Candida albicans, 0.5 h, 30 min, dose response (Fig. 5C), read-out: EC50 of the increase in iATP levels, C. albicans; for Maximum iATP level (per well), C. albicans: highest concentrations of inhibitors tested (Fig. 5C)
Experimental: (§2) S. cerevisiae and C. albicans cells were grown and washed as described above for the membrane potential and integrity assay and resuspended in SG medium (0.7% yeast nitrogen base without amino acids [BD], 50 mM succinic acid adjusted to pH 7 with Trizma base) to OD600 of 0.2 and 0.1, respectively. One hundred microliters of an S. cerevisiae or C. albicans cell suspension and 1 μl compound in DMSO were incubated for 30 min. Twenty-five microliters of the suspension was then transferred to a black 96-well plate containing 25 μl BacTiter-Glo reagent (Promega, Madison, WI) and incubated for 15 min in the dark. The luminescence was read on SpectraMax X5 (Molecular Devices, Sunnyvale, CA) plate reader with a 10 s of shaking and a 0.5 s integration time. Standard curves at 10, 100, and 1,000 nM ATP were performed with every experiment.

S. cerevisiae = test: Medium acidification assay, S. cerevisiae; type: cell-based, Saccharomyces cerevisiae; settings: 50% inhibition of medium acidification, 12 min, n = 2 to 3
Experimental: (§3) Frozen stocks of C. albicans and S. cerevisiae were transferred to YPD agar plates and incubated overnight at 34°C. On the next day, the cells were suspended and washed twice in 50 mM KCl, pH 6.7, after pelleting of the cells by centrifugation at 3,000 × g for 5 min. The cells were then starved overnight at 4°C in the KCl solution. […] The pH drop was then monitored by determination of the fluorescent signal with excitation at 485 nm and emission at 538 nm on a Fluoroskan Ascent plate reader (Thermo Fisher Scientific) for 12 min. The rate of medium acidification was calculated on the basis of the slope of the drop in fluorescence.

S. cerevisiae cells = test: Intracellular ATP (iATP), S. cerevisiae; type: cell-based, Saccharomyces cerevisiae; settings: for Effects on iATP levels, in words: S. cerevisiae and C. albicans (Fig. 5A, B), compared to compounds 14, 19 and BM2
Experimental: as §2

C. albicans = test: Medium acidification assay, C. albicans; type: cell-based, Candida albicans
Experimental: as §3

[4] = ATP hydrolysis at pH 7.4 (compounds marked b)
[5] = Saccharomyces cerevisiae, ATCC9763, Table 3
[6] = Saccharomyces cerevisiae, 0.2 h
[7] = Homo sapiens, HepG2, 24 h, medium with 10% fetal bovine serum, XTT readout, read-out: EC50 for Hep-G2 cells at 24 h
[8] = Candida albicans, 0.2 h, 50% inhibition of medium acidification, 12 min, n = 2 to 3, read-out: IC50 for acidification, C. albicans

SMILES	Compound precipitation observed in the growth medium at concentrations down to [3]	MIC (Candida spp.) [µM]	MIC ([1]; Aspergillus flavus, Table 3) [µM]	MIC [2, 5] [µM]	IC50 (S. cerevisiae; [6]) [µM]	EC50 (Hep-G2 cells; [7]) [µM]	IC50 (C. albicans; [8]) [µM]	further results
N=C(N)NCCC[C@@H](N)C(=O)N[C@H](CCCNC(=N)N)C(=O)N[C@H](CCCNC(=N)N)C(=O)N[C@H](Cc1ccccc1)C(=O)N[C@H](Cc1c[nH]c2ccccc12)C(=O)N[C@H](Cc1c[nH]c2ccccc12)C(=O)N[C@H](Cc1ccccc1)C(=O)N[C@H](CCCNC(=N)N)C(=O)N[C@H](CCCNC(=N)N)C(=O)N[C@H](CCCNC(=N)N)C(N)=O [BM2, reference compound] (HELM PEPTIDE1{[dR].[dR].[dR].[dF].[dW].[dW].[dF].[dR].[dR].[dR].[am]}$$$$V2.0)								MIC ([1]; ATCC MYA-1005): >150 µM; MIC ([2]; ATCC 9763): 4.7 µM (≈ 7.62 µg/mL); Effect on mammalian Hep-G2 cells (Hep-G2 cells): no effect; EC50 (Hep-G2 cells; 24 h): > 100 µM
O=C1/C(=C/c2ccc(-c3cc(Cl)ccc3Cl)o2)C=C(c2ccccc2)N1c1ccccc1O [Compound 1]	c Compound precipitation was observed in the growth medium at concentrations down to 15 μM.	> 150						
COc1ccc(-c2cc(C(=O)Nc3ccc(C(C)C)cc3)c3ccccc3n2)c(OC)c1 [Compound 3]	e Compound precipitation was observed in the growth medium at concentrations down to 150 μM.	> 150						
CC1CCCCN1CC(O)Cn1c(-c2ccccc2)c(-c2ccccc2)c2ccc3ccccc3c21 (stereo not shown) [Compound 4]	d Compound precipitation was observed in the growth medium at concentrations down to 48 μM.	> 38						
CCOc1ccc2nc3cc(NC(=O)c4cccc(Br)c4)ccc3c(N)c2c1 [Compound 5]	f Compound precipitation was observed in the growth medium at concentrations down to 75 μM.							
Cc1c(-c2ccccc2)[o+]c2ccccc2c1C#Cc1ccccc1 [Compound 6]	d Compound precipitation was observed in the growth medium at concentrations down to 48 μM.	> 150						IC50 (Ca^2+-ATPase (SERCA1a); [4]): 3.4 ± 0.6 µM
Oc1cccc(Nc2nc(-c3ccc(Cl)c(Cl)c3)cs2)c1 [Compound 7]	d Compound precipitation was observed in the growth medium at concentrations down to 48 μM.							IC50 (Ca^2+-ATPase (SERCA1a); [4]): 3.8 ± 0.6 µM
COc1ccc(-c2cc(C(=O)Nc3ccc4c(c3)OCCO4)c3ccccc3n2)c(OC)c1 [Compound 8]	d Compound precipitation was observed in the growth medium at concentrations down to 48 μM.	> 38						
COc1cccc(Nc2nc(Cl)nc(Nc3cccc(OC)c3)n2)c1 [Compound 9]	d Compound precipitation was observed in the growth medium at concentrations down to 48 μM.	> 150						
CCCCOc1ccc(C2C(C#N)=C(N)Oc3cc(O)ccc32)cc1 (stereo not shown) [Compound 11]	d Compound precipitation was observed in the growth medium at concentrations down to 48 μM.	> 150						
COc1ccc(Cn2c(SCc3cc(C)ccc3C)nc3cc(OC)c(OC)cc3c2=N)cc1 [Compound 12]	e Compound precipitation was observed in the growth medium at concentrations down to 150 μM.	> 150						IC50 (Ca^2+-ATPase (SERCA1a); ATP hydrolysis at pH 7): > 105 µM
CCCCc1nc2sc3c(NCCCN(C)C)ncnc3c2c2c1CCCC2 [Compound 14]			75 (≈ 29.8 µg/mL)	7.5 (≈ 2.98 µg/mL)	11.2 ± 2.7	2.3	6.6 ± 2.5	Increase in iATP levels compared to untreated control, C. albicans (C. albicans cells; 30 min of treatment): 1,500%; EC50 (C. albicans cells): 13 µM; Maximum iATP level (per well), C. albicans (C. albicans cells): about 500 nM; iATP levels in the presence of oligomycin, S. cerevisiae (S. cerevisiae cells; 30 min, oligomycin A at 40 μM): comparable to those for control cells; Increase in iATP levels compared to untreated control, S. cerevisiae (S. cerevisiae cells; 30 min of treatment, species of the BM2 value not given): 200%
CCCCc1nc2sc3c(NCCCN(C)C)nc(SC)nc3c2c2c1CCC2 [Compound 15]			24 (≈ 10.3 µg/mL)	1.5 (≈ 0.644 µg/mL)	1.7 ± 0.1	2.8 ± 0.1	1.6	
CN(C)CCCNc1ncnc2c1sc1nc(N3CCCCC3)c3c(c12)CCCC3 [Compound 16]			47 (≈ 20 µg/mL)	3.2 (≈ 1.36 µg/mL)	7.6 ± 3.4	2.6 ± 0.9	3.4 ± 1.6	
CCc1nc2sc3c(NCCCN(C)C)ncnc3c2c2c1CCCC2 [Compound 17]			> 150	47 (≈ 17.4 µg/mL)	39.6 ± 10.3	5.8 ± 1.1	19.1 ± 1.7	Effects on iATP levels, in words (S. cerevisiae cells): minimal effects
CN(C)CCCNc1ncnc2c1sc1nc(-c3ccccc3)c3c(c12)CCC3 [Compound 18]			> 75	24 (≈ 9.69 µg/mL)	12.5 ± 1.1	3.6 ± 1.1	8.8 ± 0.4	
CCN(CC)CCCNc1nc(SC)nc2c1sc1nc(-c3ccccc3)c3c(c12)CCC3 [Compound 19]			12 (≈ 5.73 µg/mL)	3.7 (≈ 1.77 µg/mL)	2.3 ± 0.1	24.2 ± 0.5	2.3 ± 0.5	EC50 (C. albicans cells): 7 µM; Maximum iATP level (per well), C. albicans (C. albicans cells): about 500 nM; Toxicity window between C. albicans and Hep-G2 cells (Hep-G2 cells; human, 24 h): 3 fold
O=c1c2ccccc2[se]n1-c1ccccc1 [Ebselen, reference compound]			24 (≈ 6.58 µg/mL)	7.5 (≈ 2.06 µg/mL)	7.6	10.7 ± 7	9.4 ± 2.1	IC50 (C. albicans; Candida albicans, read-out: IC50 for C. albicans, extracellular acidification): 11 µM
[O]=[V]([O-])([O-])[O-] [Vanadate, reference compound]								MIC ([1]; Table 3): >750 µM; MIC ([2]; Table 3): >750 µM; IC50 (S. cerevisiae): > 40 µM; EC50 (Hep-G2 cells; 24 h, medium with 10% fetal bovine serum, XTT readout, read-out: EC50 for Hep-G2 cells at 24 h): > 500 µM; Effects on iATP levels, in words (S. cerevisiae cells): minimal effects; IC50 (C. albicans; 50% inhibition of medium acidification, 12 min, n = 2 to 3, read-out: IC50 for acidification, C. albicans): > 40 µM
